Assay results published in patent US20070142348A1, “Microbicidal, prophylactic and therapeutic effect of ctc-96 on papilloma viruses” (REDOX PHARMACEUTICAL CORPORATION, AUDUBON […] AND […], priority 2003, published 2007).
Several values for one entry are separate records, joined by “and”; a condition that tells them apart may be missing. Equal entries are not always repeated.

Columns and labels:
[1] = tested on: Bovine Papillomavirus Type 1 (BPV-1); test: Inhibition of BPV-1 transformation of C127 mouse epithelial cells: exposure of virus to drug prior to infection; type: cell-based; settings: duplicate values
Experimental: Experiments were performed to determine if CTC-96™ can inactivate the ability of bovine papillomavirus type 1 (BPV-1) to morphologically transform C127 mouse epithelial cells in culture. Cell-free stocks of BPV-1 were treated with CTC-96™ or placebo. In order to detect the transforming ability of BPV-1, sub-confluent cultures of C127 mouse cells are infected with a standardized inoculate of BPV-1. For the positive controls, stock virus was added to the culture medium present on the cells. The presence of morphologically transformed foci was counted after 2 weeks and then again at 3 weeks. Controls included non-infected cells (with or without drug) and untreated BPV-1.
Bovine Papillomavirus Type 1 (BPV-1) was mixed with CTC-96™, incubated for 10 minutes at 37° C. and then added to the cells. It is clear that CTC-96™ can inhibit the appearance of bovine Papillomavirus type 1 (BPV-1) induced transformation of C127 mouse epithelial cells in culture (Table 9).

[2] = tested on: HPV-11; test: Effect of CTC-96 on the infectivity of HPV-11 (virus incubated with CTC-96 prior to infection of foreskin fragments), human xenograft SCID mouse model; type: in vivo, SCID mice; settings: for Immunocytochemistry: grafts Negative for HPV (number): foreign body/fibrous counted as negative; for Histology: grafts Negative for HPV (number): foreign body reaction/fibrous tissue counted as negative; for Composite Geometric Mean Diameters (cGMD) of the Grafts, Median: 12 weeks; for Composite Geometric Mean Diameters (cGMD) of the Grafts, Mean ± SD: 12 weeks after grafting
Experimental: The effect of CTC-96™ on the infectivity of HPV-11 was evaluated in the human xenograft SCID mouse model. HPV type 11 is, with HPV-6, one of the two viruses responsible for the majority of anogenital warts in humans.
CTC-96™ in saline was incubated with HPV-11 prior to infection of human neonatal foreskin fragments. The fragments were then grafted onto SCID mice. The animals were monitored weekly. They were weighed at the time of grafting, and every other week during the 12 weeks of the experiment. There was no effect of HPV-11 treatment by CTC-96™ on the weight of the mice. The animals were sacrificed by cervical dislocation 12 weeks after graft implantation. Length, width, and height of the graft were measured and recorded. A composite geometric mean diameter (cGMD) of the grafts was calculated for each mouse. The grafts were then removed and analyzed by histology, immunocytochemistry and RT-PCR. Graft evaluation by immunocytochemistry utilized anti-common Papillomavirus antigen^4. Explanted grafts were homogenized and total RNA was extracted. HPV-11 viral cDNA was generated by nested RT-PCR.
Presence of HPV was defined by the presence of two out of three of the following features: acanthosis (an increase in the thickness of the stratum spinosum of the epidermis) koilocytosis (perinuclear vacuolation), or parakeratosis (persistence of the nuclei in the cells of the stratum corneum of the epidermis). As the CTC-96™ concentration increases the percentages of grafts containing HPV decreases, with none positive at the two higher concentrations. […] Two explanations are possible for the high number of foreign body reactions present in the grafts infected with the HPV-11 treated with the two highest concentrations of CTC-96™. The first is that CTC-96™ completely inactivated HPV-11. […] The alternate explanation is that CTC-96™ was toxic to the graft itself. This is unlikely since CTC-96™ has been used in vitro and in vivo in intravaginal preparations without associated toxicities at the concentrations used, and at the lowest concentration of CTC-96™ (0.05%), the number of grafts with a foreign body reaction was not different than that in the control group, thus toxicity would be unlikely to account for the lower number of HPV positive grafts (P=0.0 15; by Fisher exact test). Since CTC-96™ has a clear virucidal action at the lowest concentration (see Table 4), it is reasonable to assume that this virucidal action is present at higher concentrations, independent of the presence of a cytotoxic effect.
Table 4 presents the results and analysis of the HPV RT-PCR, which was performed by extracting total RNA from homogenized, explanted grafts and generating HPV-11 viral cDNA by nested RT-PCR. Using this assay, there is a strong and clear dose-response effect. Only with the highest dose of CTC-96™ is there complete obliteration of viral transcriptional activity.

[3] = HPV-11 treated with CTC-96 0.05%
[4] = HPV-11 treated with CTC-96 0.2%
[5] = concentration not printed in the table row (0.2% group)

CC(/C=C(/C)[O-])=NCCN=C(C)/C=C(/C)[O-].Cc1ncc[nH]1.Cc1ncc[nH]1.[Br-].[Co+3] [CTC-96]
Number of Transformed Foci at 3 weeks ([1]; CTC-96 0.1 mg/ml mixed with BPV-1, 10 minutes at 37° C.): 68 and 80 | Number of Transformed Foci at 3 weeks ([1]; CTC-96 0.2 mg/ml mixed with BPV-1, 10 minutes at 37° C.): 80 and 82 | Number of Transformed Foci at 3 weeks ([1]; CTC-96 0.5 mg/ml mixed with BPV-1, 10 minutes at 37° C.): 25 and 40 | Effect on the weight of the mice ([2]; 12 weeks of the experiment): no effect | Histology: grafts Positive for HPV (number) ([2]; CTC-96 0.05%): 4 | Histology: grafts Positive for HPV (percent) ([2]; CTC-96 0.05%): (26.7%) | Immunocytochemistry: grafts Positive for HPV (number) ([2]; CTC-96 0.05%): 2 | Immunocytochemistry: grafts Positive for HPV (percent) ([2]; CTC-96 0.05%): (12.5%) | RT-PCR: grafts HPV-11 Negative (number) ([2]; CTC-96 0.05%): 7 | RT-PCR: grafts HPV-11 Positive (number) ([2]; CTC-96 0.05%): 9 | RT-PCR: grafts HPV-11 Positive (percent) ([2]; CTC-96 0.05%): (56.2%) | Immunocytochemistry: grafts Negative for HPV (number) ([2]; CTC-96 0.05%, anti-common Papillomavirus antigen): 14 | Histology: grafts Negative for HPV (number) ([2]; CTC-96 0.05%): 11 | Histology: grafts Positive for HPV (number) ([2]; CTC-96 0.2%): 0 | Histology: grafts Positive for HPV (percent) ([2]; CTC-96 0.2%): (0%) | Immunocytochemistry: grafts Positive for HPV (number) ([2]; CTC-96 0.2%): 0 | Immunocytochemistry: grafts Positive for HPV (percent) ([2]; CTC-96 0.2%): (0%) | Histology: grafts Negative for HPV (number) ([2]; CTC-96 0.2%): 12 | Immunocytochemistry: grafts Negative for HPV (number) ([2]; CTC-96 0.2%): 12 | Histology: grafts Positive for HPV (number) ([2]; CTC-96 1%): 0 | Histology: grafts Positive for HPV (percent) ([2]; CTC-96 1%): (0%) | Immunocytochemistry: grafts Positive for HPV (number) ([2]; CTC-96 1%): 0 | Immunocytochemistry: grafts Positive for HPV (percent) ([2]; CTC-96 1%): (0%) | RT-PCR: grafts HPV-11 Negative (number) ([2]; CTC-96 1%): 15 | RT-PCR: grafts HPV-11 Positive (number) ([2]; CTC-96 1%): 0 | RT-PCR: grafts HPV-11 Positive (percent) ([2]; CTC-96 1%): (0%) | Histology: grafts Negative for HPV (number) ([2]; CTC-96 1%): 16 | Immunocytochemistry: grafts Negative for HPV (number) ([2]; CTC-96 1%): 17 | Composite Geometric Mean Diameters (cGMD) of the Grafts, Median [2, 3]: 2.01 mm | Composite Geometric Mean Diameters (cGMD) of the Grafts, Mean ± SD [2, 3]: 2.02 ± 0.179 mm | Composite Geometric Mean Diameters (cGMD) of the Grafts, Median [2, 4]: 1.88 mm | Composite Geometric Mean Diameters (cGMD) of the Grafts, Mean ± SD [2, 4]: 1.86 ± 0.196 mm | Composite Geometric Mean Diameters (cGMD) of the Grafts, Median ([2]; HPV-11 treated with CTC-96 1%): 1.94 mm | Composite Geometric Mean Diameters (cGMD) of the Grafts, Mean ± SD ([2]; HPV-11 treated with CTC-96 1%): 1.95 ± 0.139 mm | RT-PCR: grafts HPV-11 Negative (number) [2, 5]: 5 | RT-PCR: grafts HPV-11 Positive (percent) [2, 5]: (28.6%) | Virucidal effect on HPV-11 ([2]; highest concentration of CTC-96 (1%)): completely virucidal | Effect on the animals' mortality or weight gain ([2]; mouse, in vivo): no effect
